Test results as given in publication PMC3763640, “Effect of Co-Administration of Rivaroxaban and Clopidogrel on Bleeding Time, Pharmacodynamics and Pharmacokinetics: A Phase I Study” (Pharmaceuticals, 2012).

Assays:
[1] = Prothrombin time (PT) in plasma after dosing; format: in vivo, human
Procedure: (§1) The effects of rivaroxaban and clopidogrel on Factor Xa activity, prothrombin time (PT), activated partial thromboplastin time (aPTT) and HepTest were assessed, as described previously. Factor Xa activities above 0.1 IU/mL (the lower limit of quantification) were determined with a precision of 3.8–6.6% and an accuracy of 96–114%. […] When only clopidogrel was administered (treatment A), blood samples were taken after 4, 8, 24 and 48 h. Blood samples were centrifuged to obtain plasma samples, which were then frozen and stored below −15 °C until analysis.

Factor Xa = target: T1, Factor Xa (Homo sapiens, UniProt P00742); assay: Factor Xa activity in plasma after dosing; format: in vivo; settings: for median value of Factor Xa activity: 4 h after administration, rivaroxaban 15 mg
T1 construct: Blood samples were centrifuged to obtain plasma samples, which were then frozen and stored below −15 °C until analysis; from tissue; host or cells: plasma from blood samples of the healthy male study subjects
T1 sequence (P00742 235-488 limits assumed): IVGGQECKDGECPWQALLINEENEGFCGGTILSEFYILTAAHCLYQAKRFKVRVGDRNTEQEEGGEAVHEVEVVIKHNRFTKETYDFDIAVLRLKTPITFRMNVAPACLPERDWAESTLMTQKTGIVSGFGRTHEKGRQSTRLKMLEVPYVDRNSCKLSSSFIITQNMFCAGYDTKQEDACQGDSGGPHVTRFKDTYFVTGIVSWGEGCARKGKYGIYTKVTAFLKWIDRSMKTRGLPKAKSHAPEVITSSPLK
T1 sequence (P00742 41-179 partner limits assumed): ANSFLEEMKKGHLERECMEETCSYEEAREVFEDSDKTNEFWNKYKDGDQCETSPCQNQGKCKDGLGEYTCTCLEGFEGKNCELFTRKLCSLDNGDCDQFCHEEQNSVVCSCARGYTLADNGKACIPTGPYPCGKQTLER
Procedure: as §1

[2] = HepTest in plasma after dosing; format: in vivo, human; settings: combination compared with rivaroxaban alone
Procedure: as §1

healthy male subjects [3] = assay: Bleeding time test (Surgicutt incision, forearm); format: in vivo, human; settings: rivaroxaban 15 mg single dose, clopidogrel 300 mg day 1 + 75 mg day 2, combination with rivaroxaban on day 2; for least squares-mean relative change in bleeding time compared with baseline: 4 h after last drug administration
Procedure: Bleeding time tests were performed in accordance with the protocol reported by the International Committee on Standardization of the Bleeding Time. Bleeding time measurements depend on the method and on who carries out the procedure; therefore, results vary greatly between studies. To reduce variability, one study nurse was specifically trained in the procedure of the test before this study. The same study nurse carried out all measurements at all time points for each subject. […] A sphygmomanometer on the upper arm was inflated to 40 mmHg for 30 seconds before the incision was made and maintained at 40 mmHg until the end of the procedure. The bleeding time incision was made by placing a Surgicutt Adult® (ITC, Edison, NJ, USA) device (used in accordance with the recommendations of the manufacturer, as specified in the package insert) gently against the forearm, perpendicular (vertical) to the elbow crease. […] The bleeding time was measured in seconds as the total duration of blood flow from the wound. […] Statistical evaluations were performed with the use of the SAS® software package version 8.2 at the Department of Global Pharmacometrics (Bayer HealthCare AG, Wuppertal, Germany). […] Student's paired t tests were used to compare treatments for these parameters, and 90% confidence intervals (CIs) for the difference were calculated.

[4] = Activated partial thromboplastin time (aPTT) in plasma after dosing; format: in vivo, human; settings: combination compared with rivaroxaban alone
Procedure: as §1

platelet aggregation = assay: ADP-stimulated platelet aggregation (Born method); format: in vivo, human; settings: for platelet aggregation, median relative change from baseline: 4 h after drug administration
Procedure: A clopidogrel response screening period preceded the study (Figure 1). […] The initial dose of 300 mg clopidogrel was chosen for this study because this loading dose is generally used in patients with ACS [24]. A second dose of 75 mg clopidogrel was selected because this is the standard daily dose recommended by guidelines for use in patients with a variety of relevant conditions, including atrial fibrillation, stroke and ACS [24]. […] This method is based on the turbidimetric determination of cell suspensions. […] Measurement was performed at 650 nm. The individual response of changes of platelet aggregation to baseline was determined using 29 µM ADP in addition to an optimized individual activating regimen using ADP. […] Statistical evaluations were performed with the use of the SAS® software package version 8.2 at the Department of Global Pharmacometrics (Bayer HealthCare AG, Wuppertal, Germany). […] Student’s paired t tests were used to compare treatments for these parameters, and 90% confidence intervals (CIs) for the difference were calculated.

[5] = tested on: GPIIb/IIIa, P-selectin and annexin V; assay: Platelet activation markers by flow cytometry; format: in vivo, human; settings: 4 h after drug administration, relative to baseline
Procedure: To assure uniformity of assays and to minimize sample manipulation, blood samples were mixed gently and processed without delay. Platelet-rich plasma was prepared by slow centrifugation, and platelets were labelled with monoclonal antibodies against GPIIb/IIIa (CD41a), […] (CD62p) and annexin V protein. Samples were analysed using a COULTER® EPICS® XLTM flow cytometer (Beckman Coulter, Inc.; Brea, CA, USA). The average immunofluorescence of the total population or the fraction of activated events was determined and compared with individual control samples before treatment.

healthy male subjects [6] = assay: Safety and tolerability; format: in vivo, human; settings: single dose of 15 mg rivaroxaban
Procedure: Safety and tolerability were assessed subjectively and objectively. Subjective assessment was obtained by asking the subjects non-leading questions about the occurrence of any adverse events or by spontaneous reporting of adverse events. Adverse events were classified according to their degree of severity. Objective tolerability was evaluated by monitoring cardiovascular parameters including heart rate, blood pressure and ECG parameters. In addition, blood tests, clinical chemistry, urine test and drug screening were part of the objective assessment.

[7] = individually optimized concentration of ADP
[8] = 12 h after administration of 15 mg rivaroxaban

effect on Factor Xa activity (Factor Xa; combination compared with rivaroxaban alone) | Compound | effect on PT ([1]; compared with baseline, combination compared with rivaroxaban monotherapy) | median value of Factor Xa activity (Factor Xa) [U/mL] | effect on HepTest [2] | least squares-mean relative change in bleeding time compared with baseline (healthy male subjects [3]) [fold] | effect on aPTT [4] | platelet aggregation, median relative change from baseline (platelet aggregation; 29 µM ADP) | platelet aggregation, median relative change from baseline (platelet aggregation; [7]) | number of subjects identified as clopidogrel responders (more than 40% inhibition of platelet aggregation compared with baseline) (platelet aggregation; of 27 healthy male subjects, single dose of 300 mg clopidogrel, 24 h after administration) | effect on platelet activation markers [5] | PT, return to values within % of baseline [1, 8] [%] | Factor Xa inhibition, return to values within % of baseline (Factor Xa; [8]) [%] | safety and tolerability (healthy male subjects [6]) | bleeding time, overall least squares-means (healthy male subjects [3]; clopidogrel responders) [times baseline] | effect on platelet aggregation (platelet aggregation; optimized ADP or fixed 29 µM ADP)
no effect | COC(=O)[C@H](c1ccccc1Cl)N1CCc2sccc2C1 [clopidogrel] | did not change | 0.9 | did not affect | 2.0 | did not affect | 0.340 | 0.249 | 14 | pronounced decrease |  |  |  |  | 
 | O=C(NC[C@H]1CN(c2ccc(N3CCOCC3=O)cc2)C(=O)O1)c1ccc(Cl)s1 [rivaroxaban] |  | 0.57 |  | 1.1 |  | 1.1 | 0.9 |  | no relevant effect | ≤ 10 | ≤ 10 | safe and well tolerated | 1.13 | not affected
